Experimental data as given in PMC7588595, “Small-molecule active pharmaceutical ingredients of approved cancer therapeutics inhibit human aspartate/asparagine-β-hydroxylase” (Bioorganic & Medicinal Chemistry, 2020).
Like-named read-outs stand apart in the source and are kept apart here.

Biological target: T1, human AspH (His6-AspH315–758) (Homo sapiens, UniProt Q12797)
T1 construct: N-Terminally His6-tagged human AspH315–758 (His6-AspH315–758) was produced in Escherichia coli BL21 (DE3) cells; made in house; host or cells: Escherichia coli BL21 (DE3), pET-28a(+) vector
T1 sequence (Q12797 315-758): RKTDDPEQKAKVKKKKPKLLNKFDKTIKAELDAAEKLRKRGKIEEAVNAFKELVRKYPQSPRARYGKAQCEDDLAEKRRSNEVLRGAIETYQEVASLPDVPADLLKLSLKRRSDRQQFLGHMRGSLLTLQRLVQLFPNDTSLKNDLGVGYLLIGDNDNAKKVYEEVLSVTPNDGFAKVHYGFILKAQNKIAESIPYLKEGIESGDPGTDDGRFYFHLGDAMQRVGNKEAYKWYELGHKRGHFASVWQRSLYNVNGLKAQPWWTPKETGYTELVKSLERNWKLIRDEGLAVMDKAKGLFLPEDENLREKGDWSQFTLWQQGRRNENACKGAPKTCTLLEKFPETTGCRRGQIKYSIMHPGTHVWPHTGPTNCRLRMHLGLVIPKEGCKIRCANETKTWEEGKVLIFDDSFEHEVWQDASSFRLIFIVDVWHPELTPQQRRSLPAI
Assay: SPE-MS AspH inhibition assay (hFX-CP101-119 substrate hydroxylation)
Assay type: biochemical

[1] = AspH-inhibitor screening, 384-well Plate 1
[2] = AspH-inhibitor screening, 384-well Plate 1, substrate conversion
[3] = AspH-inhibitor screening, Plate 1-duplicate
[4] = AspH-inhibitor screening, Plate 1-duplicate, substrate conversion

Molecule: CNC(=O)c1cc(Oc2ccc(NC(=O)Nc3cc(C(C)(C)C)nn3-c3ccc4ncccc4c3)c(F)c2)ccn1 [DCC-2036_Rebastinib]
- Plate 1 (% inhibition) [1]: 0.16%
- Plate 1 (% conversion) [2]: 49.67%
- Plate 1-duplicate (% inhibition) [3]: 3.62%
- Plate 1-duplicate (% conversion) [4]: 50.25%

Molecule: CN(N=O)C(=O)N[C@@H](C=O)[C@@H](O)[C@H](O)[C@H](O)CO [Streptozocin]
- Plate 1 (% inhibition) [1]: 6.30%
- Plate 1 (% conversion) [2]: 46.84%
- Plate 1-duplicate (% inhibition) [3]: 4.95%
- Plate 1-duplicate (% conversion) [4]: 49.58%

Molecule: C[C@@H](CN1CC(=O)NC(=O)C1)N1CC(=O)NC(=O)C1 [Dexrazoxane]
- Plate 1 (% inhibition) [1]: 16.70%
- Plate 1 (% conversion) [2]: 42.04%
- Plate 1-duplicate (% inhibition) [3]: 14.98%
- Plate 1-duplicate (% conversion) [4]: 44.61%

Molecule: COCCn1c2c([n+](Cc3cnccn3)c1C)C(=O)c1ccccc1C2=O [YM155]
- Plate 1 (% inhibition) [1]: -27.18%
- Plate 1 (% conversion) [2]: 62.30%
- Plate 1-duplicate (% inhibition) [3]: -43.09%
- Plate 1-duplicate (% conversion) [4]: 73.41%

Molecule: KX2-391
- Plate 1 (% inhibition) [1]: 2.59%
- Plate 1 (% conversion) [2]: 48.55%
- Plate 1-duplicate (% inhibition) [3]: 1.17%
- Plate 1-duplicate (% conversion) [4]: 51.46%

Molecule: O=[As]O[As]=O (stereo not drawn) [Arsenic(III) oxide]
- Plate 1 (% conversion): 46.14%
- Plate 1 (% inhibition): 7.82%
- Plate 1-duplicate (% conversion): 49.86%
- Plate 1-duplicate (% inhibition): 4.39%

Molecule: C[C@@H]1C[C@H]2[C@@H]3CCC4=CC(=O)C=C[C@]4(C)[C@@]3(F)[C@@H](O)C[C@]2(C)[C@@]1(O)C(=O)CO [Dexamethasone (Decadron)]
- Plate 1 (% inhibition) [1]: 0.59%
- Plate 1 (% conversion) [2]: 49.48%
- Plate 1-duplicate (% inhibition) [3]: 1.33%
- Plate 1-duplicate (% conversion) [4]: 51.38%

Molecule: COc1ccc(-c2ccc3c(N4CCOC[C@@H]4C)nc(N4CCOC[C@@H]4C)nc3n2)cc1CO [AZD8055]
- Plate 1 (% inhibition) [1]: 0.34%
- Plate 1 (% conversion) [2]: 49.59%
- Plate 1-duplicate (% inhibition) [3]: 4.92%
- Plate 1-duplicate (% conversion) [4]: 49.60%

Molecule: O=S(=O)(c1cccc2cnccc12)N1CCCNCC1 [HA-1077 (Fasudil)]
- Plate 1 (% inhibition) [1]: 1.01%
- Plate 1 (% conversion) [2]: 49.28%
- Plate 1-duplicate (% inhibition) [3]: 12.84%
- Plate 1-duplicate (% conversion) [4]: 45.67%

Molecule: Cc1cc(Nc2cc(CN3CCOCC3)c3nc(C)c(Cc4ccc(Cl)cc4F)n3n2)n[nH]1 [LY2784544_Gandotinib]
- Plate 1 (% inhibition) [1]: -63.83%
- Plate 1 (% conversion) [2]: 79.23%
- Plate 1-duplicate (% inhibition) [3]: -64.31%
- Plate 1-duplicate (% conversion) [4]: 83.93%

Molecule: CNC(=O)c1ccc(N2C(=S)N(c3ccc(C#N)c(C(F)(F)F)c3)C(=O)C2(C)C)cc1F [MDV3100_Enzaluamide]
- Plate 1 (% inhibition) [1]: -7.19%
- Plate 1 (% conversion) [2]: 53.07%
- Plate 1-duplicate (% inhibition) [3]: -12.48%
- Plate 1-duplicate (% conversion) [4]: 58.23%

Molecule: CCc1c2c(nc3ccc(OC(=O)N4CCC(N5CCCCC5)CC4)cc13)-c1cc3c(c(=O)n1C2)COC(=O)[C@]3(O)CC.Cl [Irinotecan hydrochloride]
- Plate 1 (% inhibition) [1]: -1.48%
- Plate 1 (% conversion) [2]: 50.43%
- Plate 1-duplicate (% inhibition) [3]: 0.58%
- Plate 1-duplicate (% conversion) [4]: 51.76%

Molecule: S=P(N1CC1)(N1CC1)N1CC1 [Thio-TEPA]
- Plate 1 (% inhibition) [1]: 17.81%
- Plate 1 (% conversion) [2]: 41.53%
- Plate 1-duplicate (% inhibition) [3]: 7.73%
- Plate 1-duplicate (% conversion) [4]: 48.21%

Molecule: Cc1cc2c(F)c(Oc3ncnn4cc(OC[C@@H](C)O)c(C)c34)ccc2[nH]1 [Brivanib]
- Plate 1 (% inhibition) [1]: 6.97%
- Plate 1 (% conversion) [2]: 46.53%
- Plate 1-duplicate (% inhibition) [3]: 3.72%
- Plate 1-duplicate (% conversion) [4]: 50.20%

Molecule: CC(C)C(=O)Nc1ccc([N+](=O)[O-])c(C(F)(F)F)c1 [Flutamide]
- Plate 1 (% inhibition) [1]: 0.33%
- Plate 1 (% conversion) [2]: 49.60%
- Plate 1-duplicate (% inhibition) [3]: 10.24%
- Plate 1-duplicate (% conversion) [4]: 46.97%

Molecule: CC(O)(CS(=O)(=O)c1ccc(F)cc1)C(=O)Nc1ccc(C#N)c(C(F)(F)F)c1 (stereo not drawn) [Bicalutamide]
- Plate 1 (% inhibition) [1]: -2.20%
- Plate 1 (% conversion) [2]: 50.76%
- Plate 1-duplicate (% inhibition) [3]: 0.00746%
- Plate 1-duplicate (% conversion) [4]: 52.04%

Molecule: Nc1nc(F)nc2c1ncn2[C@@H]1O[C@H](COP(=O)(O)O)[C@@H](O)[C@@H]1O [Fludarabine phosphate]
- Plate 1 (% inhibition) [1]: 5.12%
- Plate 1 (% conversion) [2]: 47.39%
- Plate 1-duplicate (% inhibition) [3]: 1.33%
- Plate 1-duplicate (% conversion) [4]: 51.38%

Molecule: CC(C)c1c(C(=O)Nc2ccccc2)c(-c2ccccc2)c(-c2ccc(F)cc2)n1CC[C@@H](O)C[C@@H](O)CC(=O)[O-].CC(C)c1c(C(=O)Nc2ccccc2)c(-c2ccccc2)c(-c2ccc(F)cc2)n1CC[C@@H](O)C[C@@H](O)CC(=O)[O-].[Ca+2] [Atorvastatin Ca]
- Plate 1 (% inhibition): 0.42%
- Plate 1-duplicate (% inhibition): -1.82%

Molecule: C[C@]12CC[C@@H]3c4ccc(OC(=O)N(CCCl)CCCl)cc4CC[C@H]3[C@@H]1CC[C@@H]2OP(=O)(O)O [Estramustine sodium phosphate]
- Plate 1 (% conversion): 17.18%
- Plate 1 (% inhibition): 70.54%
- Plate 1-duplicate (% conversion): 20.11%
- Plate 1-duplicate (% inhibition): 64.39%

Molecule: O=P(O)(O)C(O)(Cn1ccnc1)P(=O)(O)O [Zoledronic acid]
- Plate 1 (% inhibition) [1]: 19.60%
- Plate 1 (% conversion) [2]: 40.70%
- Plate 1-duplicate (% inhibition) [3]: 13.13%
- Plate 1-duplicate (% conversion) [4]: 45.53%

Molecule: CCCCCOC(=O)Nc1nc(=O)n([C@@H]2O[C@H](C)[C@@H](O)[C@H]2O)cc1F [Capecitabine]
- Plate 1 (% inhibition) [1]: 3.89%
- Plate 1 (% conversion) [2]: 47.95%
- Plate 1-duplicate (% inhibition) [3]: 10.65%
- Plate 1-duplicate (% conversion) [4]: 46.76%

Molecule: Cn1cnc2c(F)c(Nc3ccc(Br)cc3Cl)c(C(=O)NOCCO)cc21 [AZD6244 (Selumetinib)]
- Plate 1 (% inhibition) [1]: 5.13%
- Plate 1 (% conversion) [2]: 47.38%
- Plate 1-duplicate (% inhibition) [3]: 5.57%
- Plate 1-duplicate (% conversion) [4]: 49.28%

Molecule: Cc1ccc(Nc2nccc(N(C)c3ccc4c(C)n(C)nc4c3)n2)cc1S(N)(=O)=O [Pazopanib]
- Plate 1 (% inhibition) [1]: 4.18%
- Plate 1 (% conversion) [2]: 47.82%
- Plate 1-duplicate (% inhibition) [3]: -21.51%
- Plate 1-duplicate (% conversion) [4]: 62.71%
